From patent publication US7671054B1, “Reverse-turn mimetics and method relating thereto” (Choongwae Pharma Corporation, priority 2001, dated 2010)
Read-outs that look alike come from different tables or passages of the source.

Experiments:
[1] = system: HCT116 cells; assay: Growth inhibition assay (MTS); assay type: cell-based; settings: Homo sapiens, Table 5, HCT116 cells, 48 hours treatment, MTS, read-out: Growth Inhibition (GI50, uM) HCT116
Method: (§1) SW480 or HCT116 cells were placed into 96 well microplate (10^4cells/well) and incubated for 24 hours at 37° C. 20 μl of [3-(4,5-dimethylthiazol-2-yl)-5-(3-carboxyphenyl)-2-(4-sulfophenyl)-2H-tetrazolium, inner salt](MTS) solution (Promega) was added into each well and the absorbance after 2 hour incubation at 37° C. (negative control) was read. And then, the cells were treated with TCF4 compound at various concentrations for 48 hours. 20 μl of MTS solution (Promega) was added into each well and incubated for 2 hour at 37° C. Cell viability was measured by reading the absorbance at 490 nm using a microplate reader (Molecular device) and cytotoxicity of a compound at each concentration was calculated.
as §1, with “a test” for “TCF4”

[2] = system: SW480 cells; assay: Growth inhibition assay (MTS); assay type: cell-based; settings: Homo sapiens, Table 5, SW480 cells
Method: as §1
as §1, with “a test” for “TCF4”

[3] = SW480, 48 h, 48 hours treatment, MTS, read-out: Growth Inhibition (GI50, uM) SW480

Compound C=CCN1CC(=O)N2[C@@H](Cc3ccc(O)cc3)C(=O)N(Cc3cccc4sc(N5CCOCC5)nc34)C[C@@H]2N1C(=O)NCc1ccccc1 [Compound 189] has a GI50 ([1]; HCT-116, 48 h) of 1.2 ± 0.1 µM and a GI50 [2, 3] of 1 ± 0.1 µM.

C=CCN1CC(=O)N2[C@@H](Cc3ccc(OP(=O)(O)O)cc3)C(=O)N(Cc3ccc4c(c3)OCCO4)C[C@@H]2N1C(=O)NCc1ccccc1 [Compound 182] was tested, and the GI50 ([1]; HCT-116) was 0.8 ± 0.1 µM and the GI50 ([2]; 48 hours treatment, MTS, read-out: Growth Inhibition (GI50, uM) SW480) was 1 ± 0.1 µM.

O=C1[C@H](Cc2ccc(O)cc2)N2C(=O)CON(C(=O)NCc3ccccc3)[C@H]2CN1Cc1cccc2cccnc12 [Compound 92] showed a GI50 ([1]; HCT-116, 48 h) of 14.9 ± 2.2 µM and a GI50 [2, 3] of 12.9 ± 1 µM.

Compound C#CCN1CC(=O)N2[C@@H](Cc3ccc(O)cc3)C(=O)N(Cc3ccc(Cl)c(N(C)C)c3)C[C@@H]2N1C(=O)NCc1ccccc1 [Compound 83] has a GI50 ([1]; HCT-116, 48 h) of 2.5 ± 0.1 µM and a GI50 [2, 3] of 2.3 ± 0.3 µM.

Compound C=CCN1CC(=O)N2[C@@H](Cc3ccc(O)cc3)C(=O)N(Cc3cccc(N4CCOCC4)c3)C[C@@H]2N1C(=O)NCc1ccccc1 [Compound 99] has a GI50 ([1]; HCT-116, 48 h) of 0.7 ± 0.1 µM and a GI50 [2, 3] of 1 ± 0.05 µM.

CN(C)c1cccc(CN2C[C@H]3N(C(=O)CN(C)N3C(=O)NCc3ccccc3)[C@@H](Cc3ccc(O)cc3)C2=O)c1 [Compound 55] gave a GI50 ([1]; HCT-116, 48 h) of 4.1 ± 0.7 µM and a GI50 [2, 3] of 4.6 ± 0.5 µM.

In the case of CN1CC(=O)N2[C@@H](Cc3ccc(O)cc3)C(=O)N(Cc3cccc(N4CCCC4=O)c3)C[C@@H]2N1C(=O)NCc1ccccc1 [Compound 121], the GI50 ([1]; HCT-116, 48 h) is reported as 13.1 ± 0.6 µM and the GI50 [2, 3] is reported as 8.2 ± 0.5 µM.

For CCOP(=O)(CC(=O)Nc1ccc(C[C@H]2C(=O)N(Cc3cccc4ccccc34)C[C@H]3N2C(=O)CN(C)N3C(=O)NCc2ccccc2)cc1)OCC [Compound 59], the GI50 ([1]; HCT-116) was 55.1 ± 33.7 µM and the GI50 ([2]; the cell prints nM, read-out: Growth Inhibition (GI50) SW480) was > 0.05 µM.

In the case of C#CCN1CC(=O)N2[C@@H](Cc3ccc(O)cc3)C(=O)N(Cc3cccc(N4CCOCC4)c3)C[C@@H]2N1C(=O)NCc1ccccc1 [Compound 91], the GI50 ([1]; HCT-116, 48 h) is reported as 3.2 ± 0.2 µM and the GI50 [2, 3] is reported as 1.5 ± 0.1 µM.

CN1CC(=O)N2[C@@H](Cc3ccc(O)cc3)C(=O)N(Cc3cccc4c3nnn4C)C[C@@H]2N1C(=O)NCc1ccccc1 [Compound 53] gave a GI50 ([1]; HCT-116, 48 h) of 4.7 ± 0.4 µM and a GI50 [2, 3] of 11.4 ± 0.9 µM.

Work on CN1CC(=O)N2[C@@H](Cc3ccc(O)cc3)C(=O)N(Cc3cccc4nnn(C)c34)C[C@@H]2N1C(=O)NCc1ccccc1 [Compound 52] yielded a GI50 ([1]; HCT-116, 48 h) of 9.7 ± 0.9 µM and a GI50 [2, 3] of 19.3 ± 2.1 µM.

[2H]c1cc(O)cc([2H])c1C[C@H]1C(=O)N(Cc2cccc3ccccc23)C[C@H]2N1C(=O)CN(C)N2C(=O)NCc1ccccc1 [Compound 142] gave a GI50 ([1]; HCT-116, 48 h) of 3.3 ± 0.4 µM and a GI50 [2, 3] of 3.2 ± 0.3 µM.

COc1ccc(CN2CC3N(C(=O)CN(C)N3C(=O)NCc3ccccc3)[C@@H](Cc3ccc(O)cc3)C2=O)cc1 (stereo partly drawn) [Compound 20] gave a GI50 ([1]; HCT-116, 48 h) of 2.75 µM and a GI50 [2, 3] of 5.02 µM.

C=CCN1CC(=O)N2[C@@H](Cc3ccc(O)cc3)C(=O)N(Cc3cccc4scnc34)C[C@@H]2N1C(=O)NCc1ccc(Cl)c(Cl)c1 [Compound 180] showed a GI50 ([1]; HCT-116, 48 h) of 1.1 ± 0.1 µM and a GI50 [2, 3] of 1 ± 0.1 µM.

Work on C=CCN1CC(=O)N2[C@@H](Cc3ccc(O)cc3)C(=O)N(Cc3cc(F)c(F)cc3N(C)C)C[C@@H]2N1C(=O)NCc1ccccc1 [Compound 132] yielded a GI50 ([1]; HCT-116, 48 h) of 2.2 ± 1.2 µM and a GI50 [2, 3] of 2.5 ± 0.1 µM.

CCCN1CC(=O)N2[C@@H](Cc3ccc(O)cc3)C(=O)N(Cc3ccc(F)cc3F)C[C@@H]2N1C(=O)NCc1ccccc1 [Compound 127] showed a GI50 ([1]; HCT-116, 48 h) of 4.3 ± 0.7 µM and a GI50 [2, 3] of 4.9 ± 0.7 µM.

With C=CCN1CC(=O)N2[C@@H](Cc3ccc(O)cc3)C(=O)N(Cc3ccc(F)cc3F)C[C@@H]2N1C(=O)NCc1ccc(Cl)c(Cl)c1 [Compound 149] the GI50 ([1]; HCT-116, 48 h) was 2.3 ± 0.4 µM and the GI50 [2, 3] was 2.3 ± 0.1 µM.

Work on C=CCN1CC(=O)N2[C@@H](Cc3ccc(O)cc3)C(=O)N(Cc3cccc4sc(N5CCCCC5)nc34)C[C@@H]2N1C(=O)NCc1ccccc1 [Compound 188] yielded a GI50 ([1]; HCT-116, 48 h) of 1.8 ± 0.2 µM and a GI50 [2, 3] of 1.6 ± 0.2 µM.

In the case of CN(Cc1ccccc1)c1cccc(CN2C[C@H]3N(C(=O)CN(C)N3C(=O)NCc3ccccc3)[C@@H](Cc3ccc(O)cc3)C2=O)c1 [Compound 56], the GI50 ([1]; HCT-116, 48 h) is reported as 9.1 µM and the GI50 [2, 3] is reported as 10.8 µM.

C=CCN1CC(=O)N2[C@@H](Cc3ccc(O)cc3)C(=O)N(Cc3cccc4c3OCCO4)C[C@@H]2N1C(=O)NCc1ccc(Cl)c(Cl)c1 [Compound 174] showed a GI50 ([1]; HCT-116, 48 h) of 1.8 ± 0.1 µM and a GI50 [2, 3] of 1.9 ± 0.2 µM.

C=CCN1CC(=O)N2[C@@H](Cc3ccc(O)cc3)C(=O)N(Cc3cccc(N4CCCC4)c3)C[C@@H]2N1C(=O)NCc1ccccc1 [Compound 125] was tested, and the GI50 ([1]; HCT-116, 48 h) was 1.9 ± 0.2 µM and the GI50 [2, 3] was 2.2 ± 0.3 µM.
